Reference: ChEMBL document CHEMBL3046513, “Synthesis, characterization, and biological evaluation of some N-aryl hydrazones and their 2,3-disubstituted-4-thiazolidinone derivatives” (Med Chem Res, 2013)
Values after ≈ are worked out from the molar mass of the structure shown. Active and inactive are the calls of the source. No cut-off for these calls is given here.

Tests used:
Type in all cases: functional
[1] = system: Radical scavenging activity; test: Antioxidant activity assessed as inhibition of DPPH radical generation at 200 ug/mL after 20 min by spectrophotometric analysis relative to control
[2] = system: Radical scavenging activity; test: Antioxidant activity assessed as inhibition of DPPH radical generation at 800 ug/mL after 20 min by spectrophotometric analysis relative to control
[3] = system: Radical scavenging activity; test: Antioxidant activity assessed as inhibition of DPPH radical generation at 400 ug/mL after 20 min by spectrophotometric analysis relative to control
Escherichia coli = test: Antibacterial activity against Escherichia coli ATCC 25922 assessed as growth inhibition by serial plate dilution method
Pseudomonas aeruginosa = test: Antibacterial activity against Pseudomonas aeruginosa ATCC 27853 assessed as growth inhibition by serial plate dilution method
Candida albicans = test: Antifungal activity against Candida albicans assessed as growth inhibition by serial plate dilution method
Bacillus cereus = test: Antibacterial activity against Bacillus cereus assessed as growth inhibition by serial plate dilution method
Staphylococcus aureus = test: Antibacterial activity against Staphylococcus aureus ATCC 25923 assessed as growth inhibition by serial plate dilution method
Rattus norvegicus [4] = test: Anti-inflammatory activity in Rattus norvegicus (rat) assessed as decrease in carrageenan-induced paw edema at 100 mg/kg, po administered 30 min prior to carrageenan challenge measured after 180 min (reference value: 2.275 +/- 0.1181 mm)
Mus musculus [5] = test: Analgesic activity in Mus musculus […] albino (mouse) assessed as time taken to tail withdrawl at 100 mg/kg, po administered through intragastric tube after 180 min by tail flick test (reference value: 1.363 +/- 0.1297 secs)
Mus musculus [6] = test: Analgesic activity in Mus musculus […] albino (mouse) assessed as time taken to tail withdrawl at 100 mg/kg, po administered through intragastric tube after 120 min by tail flick test (reference value: 1.363 +/- 0.1297 secs)
Mus musculus [7] = test: Analgesic activity in Mus musculus […] albino (mouse) assessed as time taken to tail withdrawl at 100 mg/kg, po administered through intragastric tube after 60 min by tail flick test (reference value: 1.363 +/- 0.1297 secs)
Rattus norvegicus [8] = test: Anti-inflammatory activity in Rattus norvegicus (rat) assessed as decrease in carrageenan-induced paw edema at 100 mg/kg, po administered 30 min prior to carrageenan challenge measured after 120 min (reference value: 2.375 +/- 0.1436 mm)
Rattus norvegicus [9] = test: Anti-inflammatory activity in Rattus norvegicus (rat) assessed as decrease in carrageenan-induced paw edema at 100 mg/kg, po administered 30 min prior to carrageenan challenge measured after 60 min (reference value: 2.175 +/- 0.1797 mm)

SMILES	inhibition [1]	inhibition [2] [%]	inhibition [3] [%]	MIC (Escherichia coli) [µg/mL]	MIC (Pseudomonas aeruginosa) [µg/mL]	MIC (Candida albicans) [µg/mL]	MIC (Bacillus cereus) [µg/mL]	MIC (Staphylococcus aureus) [µg/mL]	Activity (Rattus norvegicus [4]) [mm]	Time (Mus musculus [5]) [s]	Time (Mus musculus [6]) [s]	Time (Mus musculus [7]) [s]	Activity (Rattus norvegicus [8]) [mm]	Activity (Rattus norvegicus [9]) [mm]
O=C1O[C@H]([C@@H](O)CO)C(O)=C1O	87.6%	96	95											
COc1ccc(Br)c(C(=O)N/N=C\c2ccc(C)cc2)c1				6.25 (≈ 18 µM)	12.5 (≈ 36 µM)	6.25 (≈ 18 µM)	12.5 (≈ 36 µM)	12.5 (≈ 36 µM)						
COc1ccc(Br)c(C(=O)NN2C(=O)CSC2c2ccccc2Cl)c1 (stereo not given)	59.3%	72.9	65.9	12.5 (≈ 28.3 µM)	3.12 (≈ 7.07 µM)	6.25 (≈ 14.1 µM)	6.25 (≈ 14.1 µM)	6.25 (≈ 14.1 µM)	2.075	2.5	2.125	1.963	1.975	1.85
COc1ccc(Br)c(C(=O)NN2C(=O)CSC2c2ccc(F)cc2)c1 (stereo not given)	37.8%	57.1	51	6.25 (≈ 14.7 µM)	12.5 (≈ 29.4 µM)	6.25 (≈ 14.7 µM)	6.25 (≈ 14.7 µM)	12.5 (≈ 29.4 µM)	2.2	3.241	3.421	2.923	2.05	2
COc1ccc(Br)c(C(=O)N/N=C\c2ccc(O)cc2)c1				12.5 (≈ 35.8 µM)	6.25 (≈ 17.9 µM)	3.12 (≈ 8.95 µM)	6.25 (≈ 17.9 µM)	12.5 (≈ 35.8 µM)						
COc1ccc(Br)c(C(=O)N/N=C\c2cccc(Cl)c2)c1				12.5 (≈ 34 µM)	6.25 (≈ 17 µM)	6.25 (≈ 17 µM)	12.5 (≈ 34 µM)	25 (≈ 68 µM)						
COc1ccc(Br)c(C(=O)N/N=C\c2cccnc2)c1				6.25 (≈ 18.7 µM)	6.25 (≈ 18.7 µM)	3.12 (≈ 9.35 µM)	6.25 (≈ 18.7 µM)	6.25 (≈ 18.7 µM)						
O=C(O)Cc1ccccc1Nc1c(Cl)cccc1Cl [DICLOFENAC]									0.625				0.625	0.6
COc1ccc(Br)c(C(=O)N/N=C/C2=C(Cl)c3ccccc3C(c3ccc(Cl)c(Cl)c3)C2)c1 (stereo not given)				12.5 (≈ 22.1 µM)	6.25 (≈ 11.1 µM)	6.25 (≈ 11.1 µM)	12.5 (≈ 22.1 µM)	12.5 (≈ 22.1 µM)						
COc1ccc(Br)c(C(=O)N/N=C\c2ccccc2OC)c1				12.5 (≈ 34.4 µM)	3.12 (≈ 8.6 µM)	6.25 (≈ 17.2 µM)	12.5 (≈ 34.4 µM)	6.25 (≈ 17.2 µM)						
COc1ccc(C2SCC(=O)N2NC(=O)c2cc(OC)ccc2Br)cc1 (stereo not given)	57.5%	59.5	58.2	12.5 (≈ 28.6 µM)	6.25 (≈ 14.3 µM)	6.25 (≈ 14.3 µM)	6.25 (≈ 14.3 µM)	6.25 (≈ 14.3 µM)	1.875	2.513	2.575	2.388	1.75	1.6
CC(C)=CCN1CC[C@]2(C)c3cc(O)ccc3C[C@H]1[C@H]2C [(+)-PENTAZOCINE]										7.025	6.863	7.075		
COc1ccc(C2SCC(=O)N2NC(=O)c2cc(OC)ccc2Br)c(OC)c1 (stereo not given)	15.9%	71	33.2	12.5 (≈ 26.7 µM)	6.25 (≈ 13.4 µM)	3.12 (≈ 6.69 µM)	6.25 (≈ 13.4 µM)	12.5 (≈ 26.7 µM)	1.9	2.388	3.075	3.175	2.15	2.125
COc1ccc(Br)c(C(=O)NN2C(=O)CSC2c2ccc([N+](=O)[O-])cc2)c1 (stereo not given)	inactive	13	5.81	6.25 (≈ 13.8 µM)	12.5 (≈ 27.6 µM)	6.25 (≈ 13.8 µM)	6.25 (≈ 13.8 µM)	6.25 (≈ 13.8 µM)	1.975	2.663	3.263	3.375	1.8	1.45
CC1(C)S[C@@H]2[C@H](NC(=O)Cc3ccccc3)C(=O)N2[C@H]1C(=O)O [PENICILLIN G]				0.12 (≈ 0.359 µM)	0.12 (≈ 0.359 µM)		0.12 (≈ 0.359 µM)	0.12 (≈ 0.359 µM)						
OC(Cn1cncn1)(Cn1cncn1)c1ccc(F)cc1F [FLUCONAZOLE]						8 (≈ 26.1 µM)								

SMILES	inhibition [1]	inhibition [2] [%]	inhibition [3] [%]	MIC (Escherichia coli) [µg/mL]	MIC (Pseudomonas aeruginosa) [µg/mL]	MIC (Candida albicans) [µg/mL]	MIC (Bacillus cereus) [µg/mL]	MIC (Staphylococcus aureus) [µg/mL]	Activity (Rattus norvegicus [4]) [mm]	Time (Mus musculus [5]) [s]	Time (Mus musculus [6]) [s]	Time (Mus musculus [7]) [s]	Activity (Rattus norvegicus [8]) [mm]	Activity (Rattus norvegicus [9]) [mm]
COc1ccc(Br)c(C(=O)N/N=C\c2ccc(Cl)cc2)c1				6.25 (≈ 17 µM)	3.12 (≈ 8.5 µM)	3.12 (≈ 8.5 µM)	12.5 (≈ 34 µM)	6.25 (≈ 17 µM)						
COc1ccc(Br)c(C(=O)NN2C(=O)CSC2c2ccc(-c3ccccc3)cc2)c1 (stereo not given)	15.3%	62.5	39.9	6.25 (≈ 12.9 µM)	6.25 (≈ 12.9 µM)	6.25 (≈ 12.9 µM)	6.25 (≈ 12.9 µM)	12.5 (≈ 25.9 µM)	2.075	3.113	3.313	2.988	1.875	1.45
COc1ccc(/C=N\NC(=O)c2cc(OC)ccc2Br)c(OC)c1				6.25 (≈ 15.9 µM)	6.25 (≈ 15.9 µM)	6.25 (≈ 15.9 µM)	12.5 (≈ 31.8 µM)	12.5 (≈ 31.8 µM)						
COc1ccc(Br)c(C(=O)NN2C(=O)CSC2c2cccnc2)c1 (stereo not given)	21.6%	25.1	23.5	6.25 (≈ 15.3 µM)	6.25 (≈ 15.3 µM)	3.12 (≈ 7.65 µM)	6.25 (≈ 15.3 µM)	6.25 (≈ 15.3 µM)	1.9	2.938	3.6	3.25	1.75	1.45
COc1ccc(Br)c(C(=O)N/N=C\c2ccc(-c3ccccc3)cc2)c1				25 (≈ 61.1 µM)	6.25 (≈ 15.3 µM)	12.5 (≈ 30.5 µM)	25 (≈ 61.1 µM)	25 (≈ 61.1 µM)						
COc1ccc(Br)c(C(=O)N/N=C\c2ccc(F)cc2)c1				12.5 (≈ 35.6 µM)	6.25 (≈ 17.8 µM)	12.5 (≈ 35.6 µM)	6.25 (≈ 17.8 µM)	6.25 (≈ 17.8 µM)						
COc1ccc(Br)c(C(=O)N/N=C\c2ccccc2Cl)c1				6.25 (≈ 17 µM)	6.25 (≈ 17 µM)	6.25 (≈ 17 µM)	6.25 (≈ 17 µM)	12.5 (≈ 34 µM)						
COc1ccc(Br)c(C(=O)NN2C(=O)CSC2C2=C(Cl)c3ccccc3C(c3ccc(Cl)c(Cl)c3)C2)c1 (stereo not given)				12.5 (≈ 19.6 µM)	6.25 (≈ 9.78 µM)	6.25 (≈ 9.78 µM)	12.5 (≈ 19.6 µM)	6.25 (≈ 9.78 µM)	2.025	2.338	3.388	3.463	2.175	2.025
COc1ccc(Br)c(C(=O)N/N=C\c2cccc3cc(OC)ccc23)c1				12.5 (≈ 30.2 µM)	12.5 (≈ 30.2 µM)	12.5 (≈ 30.2 µM)	6.25 (≈ 15.1 µM)	6.25 (≈ 15.1 µM)						
COc1ccc(Br)c(C(=O)N/N=C\c2ccccc2O)c1				6.25 (≈ 17.9 µM)	6.25 (≈ 17.9 µM)	6.25 (≈ 17.9 µM)	12.5 (≈ 35.8 µM)	12.5 (≈ 35.8 µM)						
COc1ccc(Br)c(C(=O)NN2C(=O)CSC2c2ccc(O)cc2)c1 (stereo not given)	57.8%	58.3	58	6.25 (≈ 14.8 µM)	6.25 (≈ 14.8 µM)	6.25 (≈ 14.8 µM)	12.5 (≈ 29.5 µM)	12.5 (≈ 29.5 µM)	2.048	2.532	2.775	2.675	1.899	1.89
COc1ccc(Br)c(C(=O)NN2C(=O)CSC2c2ccc(Cl)cc2)c1 (stereo not given)	57.5%	58.2	58.2	12.5 (≈ 28.3 µM)	3.12 (≈ 7.07 µM)	12.5 (≈ 28.3 µM)	12.5 (≈ 28.3 µM)	12.5 (≈ 28.3 µM)	2.25	2.463	2.788	2.613	2.25	2.15
COc1ccc(Br)c(C(=O)NN2C(=O)CSC2c2cccc3cc(OC)ccc23)c1 (stereo not given)	38.3%	58.3	52.4	6.25 (≈ 12.8 µM)	6.25 (≈ 12.8 µM)	6.25 (≈ 12.8 µM)	12.5 (≈ 25.6 µM)	12.5 (≈ 25.6 µM)	1.98	2.53	2.214	1.954	1.89	1.515
COc1ccc(/C=N\NC(=O)c2cc(OC)ccc2Br)cc1				12.5 (≈ 34.4 µM)	3.12 (≈ 8.6 µM)	6.25 (≈ 17.2 µM)	12.5 (≈ 34.4 µM)	12.5 (≈ 34.4 µM)						
COc1ccc(Br)c(C(=O)N/N=C\c2ccc([N+](=O)[O-])cc2)c1				6.25 (≈ 16.5 µM)	6.25 (≈ 16.5 µM)	3.12 (≈ 8.26 µM)	6.25 (≈ 16.5 µM)	12.5 (≈ 33.1 µM)						
COc1ccc(Br)c(C(=O)N/N=C\c2ccc(O)c(OC)c2)c1				6.25 (≈ 16.5 µM)	12.5 (≈ 33 µM)	12.5 (≈ 33 µM)	6.25 (≈ 16.5 µM)	12.5 (≈ 33 µM)						
